Key:
Type in all cases: in vivo
[1] = tested on: Beet Armyworm (Spodoptera exigua, LAPHEG); test: Bioassays on Beet Armyworm (BAW), 128-well diet tray assay; details: Spodoptera exigua; Beet Armyworm; rating class; read-out: BAW
Outline: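 Test molecule was dissolved in 90:10 acetone-water and applied at 50 μg/cm^2 onto artificial diet in eight wells, then dried. Second instar larvae, one to five per well, were added, and trays were kept vented at 25° C. with a 14:10 photoperiod for five to seven days before mortality was recorded.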

[2] = tested on: Yellow Fever Mosquito (Aedes aegypti, AEDSAE); details: Yellow Fever Mosquito; rating class
Outline: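 Mortality after 3 days at room temperature is the read-out, scored well by well and converted to a rating. Test molecules came from 4000 ppm stocks in DMSO, further diluted in 90:10 water/acetone, and were exposed to roughly 1-day-old larvae suspended in liver-powder water.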

[3] = tested on: Cabbage Looper (Trichoplusia ni, TRIPNI); test: Bioassays on Cabbage Looper (CL), 128-well diet tray assay; details: Trichoplusia ni; Cabbage Looper; rating class; read-out: CL
Outline: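 Each of eight wells receives artificial diet treated at 50 μg/cm^2 with the test molecule, then one to five second-instar larvae. Incubation runs five to seven days at 25° C with a 14:10 light-dark cycle under vented covers. Mortality is scored per well as a percentage and averaged.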

Compound | pest or weed control at 50 µg/cm2 [1] | YFM [2] | pest or weed control at 50 µg/cm2 [3]
O=C(Nc1ccc(F)c(NC(=O)C(F)(F)C(F)F)c1F)c1cc(NC(=O)[C@H]2[C@H](c3cc(F)cc(C(F)(F)F)c3)C2(Cl)Cl)ccc1Cl [F1707, 2-Chloro-5-((1R,3R)-2,2-dichloro-3-(3-fluoro-5-(trifluoromethyl)phenyl)cyclopropane-1-carboxamido)-N-(2,4-difluoro-3-(2,2,3,3-tetrafluoropropanamido)phenyl)benzamide] | 50 to 100% | A (80–100) | 50 to 100%
CCC(=O)Nc1c(F)ccc(NC(=O)c2cc(NC(=O)[C@H]3[C@H](c4cc(F)cc(C(F)(F)F)c4)C3(Cl)Cl)ccc2Cl)c1F [F1709, 2-Chloro-5-((1R,3R)-2,2-dichloro-3-(3-fluoro-5-(trifluoromethyl)phenyl)cyclopropane-1-carboxamido)-N-(2,4-difluoro-3-propionamidophenyl)benzamide] | 50 to 100% | A (80–100) | 50 to 100%
COC(C)C(=O)Nc1c(F)ccc(NC(=O)c2cc(NC(=O)[C@H]3[C@H](c4ccc(F)c(C(F)(F)F)c4)C3(Cl)Cl)ccc2Cl)c1F (stereo partly drawn) [F1712, 2-Chloro-5-((1R,3R)-2,2-dichloro-3-(4-fluoro-3-(trifluoromethyl)phenyl)cyclopropane-1-carboxamido)-N-(2,4-difluoro-3-(2-methoxypropanamido)phenyl)benzamide] | 50 to 100% | A (80–100) | 50 to 100%
O=C(Nc1ccc(F)c(NC(=O)C(F)(F)Cl)c1F)c1cc(NC(=O)[C@H]2[C@H](c3ccc(Cl)c(C(F)(F)F)c3)C2(Cl)Cl)ccc1Cl [F1719, 2-Chloro-N-(3-(2-chloro-2,2-difluoroacetamido)-2,4-difluorophenyl)-5-((1R,3R)-2,2-dichloro-3-(4-chloro-3-(trifluoromethyl)phenyl)cyclopropane-1-carboxamido)benzamide] | 50 to 100% | A (80–100) | 50 to 100%
CO[C@@H](C)C(=O)Nc1c(F)ccc(NC(=O)c2cc(NC(=O)[C@H]3[C@H](c4ccc(F)c(C(F)(F)F)c4)C3(Cl)Cl)ccc2Cl)c1F [F1720, 2-Chloro-5-((1R,3R)-2,2-dichloro-3-(4-fluoro-3-(trifluoromethyl)phenyl)cyclopropane-1-carboxamido)-N-(2,4-difluoro-3-((S)-2-methoxypropanamido)phenyl)benzamide] | 50 to 100% | A (80–100) | 50 to 100%
O=C(Nc1ccccc1)c1cc(NC(=O)[C@H]2[C@H](c3ccc(F)c(C(F)(F)F)c3)C2(Cl)Cl)c(F)cc1Cl [F1723, 2-Chloro-5-((1R,3R)-2,2-dichloro-3-(4-fluoro-3-(trifluoromethyl)phenyl)cyclopropane-1-carboxamido)-4-fluoro-N-phenylbenzamide] | 50 to 100% | A (80–100) | 50 to 100%
O=C(Nc1ccc(F)cc1)c1cc(NC(=O)[C@H]2[C@H](c3ccc(F)c(C(F)(F)F)c3)C2(Cl)Cl)c(F)cc1Cl [F1725, 2-Chloro-5-((1R,3R)-2,2-dichloro-3-(4-fluoro-3-(trifluoromethyl)phenyl)cyclopropane-1-carboxamido)-4-fluoro-N-(4-fluorophenyl)benzamide] | 50 to 100% | A (80–100) | 50 to 100%
O=C(Nc1ccc(F)cc1F)c1cc(NC(=O)[C@H]2[C@H](c3ccc(F)c(C(F)(F)F)c3)C2(Cl)Cl)c(F)cc1Cl [F1727, 2-Chloro-5-((1R,3R)-2,2-dichloro-3-(4-fluoro-3-(trifluoromethyl)phenyl)cyclopropane-1-carboxamido)-N-(2,4-difluorophenyl)-4-fluorobenzamide] | 50 to 100% | A (80–100) | 50 to 100%
O=C(Nc1ccc(F)c(NC(=O)C(Cl)CCl)c1F)c1cc(NC(=O)[C@H]2[C@H](c3ccc(F)c(C(F)(F)F)c3)C2(Cl)Cl)ccc1Cl (stereo partly drawn) [F1728, 2-Chloro-5-((1R,3R)-2,2-dichloro-3-(4-fluoro-3-(trifluoromethyl)phenyl)cyclopropane-1-carboxamido)-N-(3-(2,3-dichloropropanamido)-2,4-difluorophenyl)benzamide] | 50 to 100% | B (More than 0 – Less than 80) | 50 to 100%
O=C(Nc1ccc(F)c(NC(=O)C(F)F)c1F)c1cc(NC(=O)[C@H]2[C@H](c3ccc(F)c(C(F)(F)F)c3)C2(Cl)Cl)c(F)cc1Cl [F1729, 2-Chloro-5-((1R,3R)-2,2-dichloro-3-(4-fluoro-3-(trifluoromethyl)phenyl)cyclopropane-1-carboxamido)-N-(3-(2,2-difluoroacetamido)-2,4-difluorophenyl)-4-fluorobenzamide] | 50 to 100% | A (80–100) | 50 to 100%
O=C(CCF)Nc1c(F)ccc(NC(=O)c2cc(NC(=O)[C@H]3[C@H](c4ccc(F)c(C(F)(F)F)c4)C3(Cl)Cl)ccc2Cl)c1F [F1735, 2-Chloro-5-((1R,3R)-2,2-dichloro-3-(4-fluoro-3-(trifluoromethyl)phenyl)cyclopropane-1-carboxamido)-N-(2,4-difluoro-3-(3-fluoropropanamido)phenyl)benzamide] | 50 to 100% | A (80–100) | 50 to 100%
O=C(CC(F)(F)F)Nc1c(F)ccc(NC(=O)c2cc(NC(=O)[C@H]3[C@H](c4cccc(C(F)(F)F)c4)C3(Cl)Cl)ccc2Cl)c1F [F1738, 2-Chloro-5-((1R,3R)-2,2-dichloro-3-(3-(trifluoromethyl)phenyl)cyclopropane-1-carboxamido)-N-(2,4-difluoro-3-(3,3,3-trifluoropropanamido)phenyl)benzamide] | 50 to 100% | A (80–100) | 50 to 100%
CC(=O)Nc1cc(NC(=O)c2cc(NC(=O)[C@H]3[C@H](c4ccc(F)c(C(F)(F)F)c4)C3(Cl)Cl)ccc2Cl)c(F)c(F)c1F [F1743, N-(5-Acetamido-2,3,4-trifluorophenyl)-2-chloro-5-((1R,3R)-2,2-dichloro-3-(4-fluoro-3-(trifluoromethyl)phenyl)cyclopropane-1-carboxamido)benzamide] | 50 to 100% | A (80–100) | 50 to 100%
O=C(Nc1cc(NC(=O)C(F)F)c(F)c(F)c1F)c1cc(NC(=O)[C@H]2[C@H](c3ccc(F)c(C(F)(F)F)c3)C2(Cl)Cl)ccc1Cl [F1744, 2-Chloro-5-((1R,3R)-2,2-dichloro-3-(4-fluoro-3-(trifluoromethyl)phenyl)cyclopropane-1-carboxamido)-N-(5-(2,2-difluoroacetamido)-2,3,4-trifluorophenyl)benzamide] | 50 to 100% | A (80–100) | 50 to 100%
CC(OCC1CC1)C(=O)Nc1c(F)ccc(NC(=O)c2cc(NC(=O)[C@H]3[C@H](c4ccc(F)c(C(F)(F)F)c4)C3(Cl)Cl)ccc2Cl)c1F (stereo partly drawn) [F1745, 2-Chloro-N-(3-(2-(cyclopropylmethoxy)propanamido)-2,4-difluorophenyl)-5-((1R,3R)-2,2-dichloro-3-(4-fluoro-3-(trifluoromethyl)phenyl)cyclopropane-1-carboxamido)benzamide] | 50 to 100% | A (80–100) | 50 to 100%
CC(C)COC(C)C(=O)Nc1c(F)ccc(NC(=O)c2cc(NC(=O)[C@H]3[C@H](c4ccc(F)c(C(F)(F)F)c4)C3(Cl)Cl)ccc2Cl)c1F (stereo partly drawn) [F1746, 2-Chloro-5-((1R,3R)-2,2-dichloro-3-(4-fluoro-3-(trifluoromethyl)phenyl)cyclopropane-1-carboxamido)-N-(2,4-difluoro-3-(2-isobutoxypropanamido)phenyl)benzamide] | 50 to 100% | A (80–100) | 50 to 100%
CC(OCC(F)(F)F)C(=O)Nc1c(F)ccc(NC(=O)c2cc(NC(=O)[C@H]3[C@H](c4ccc(F)c(C(F)(F)F)c4)C3(Cl)Cl)ccc2Cl)c1F (stereo partly drawn) [F1747, 2-Chloro-5-((1R,3R)-2,2-dichloro-3-(4-fluoro-3-(trifluoromethyl)phenyl)cyclopropane-1-carboxamido)-N-(2,4-difluoro-3-(2-(2,2,2-trifluoroethoxy)propanamido)phenyl)benzamide] | 50 to 100% | A (80–100) | 50 to 100%
CN(C(=O)CC#N)c1c(F)ccc(NC(=O)c2cc(NC(=O)[C@H]3[C@H](c4ccc(F)c(C(F)(F)F)c4)C3(Cl)Cl)ccc2Cl)c1F [F1752, 2-Chloro-N-(3-(2-cyano-N-methylacetamido)-2,4-difluorophenyl)-5-((1R,3R)-2,2-dichloro-3-(4-fluoro-3-(trifluoromethyl)phenyl)cyclopropane-1-carboxamido)benzamide] | 50 to 100% | A (80–100) | 50 to 100%
CC(C#N)C(=O)Nc1c(F)ccc(NC(=O)c2cc(NC(=O)[C@H]3[C@H](c4ccc(F)c(C(F)(F)F)c4)C3(Cl)Cl)ccc2Cl)c1F (stereo partly drawn) [F1755, 2-Chloro-N-(3-(2-cyanopropanamido)-2,4-difluorophenyl)-5-((1R,3R)-2,2-dichloro-3-(4-fluoro-3-(trifluoromethyl)phenyl)cyclopropane-1-carboxamido)benzamide] | 50 to 100% | B (More than 0 – Less than 80) | 50 to 100%
